# Test results taken from patent publication US9902728B2, “Pyrrolo and pyrazolopyrimidines as ubiquitin-specific protease 7 inhibitors” (Forma Therapeutics, Inc., priority 2014, dated 2018).
# Molecular target: T1, USP7 (Homo sapiens, UniProt Q93009)
# T1 construct: USP7, construct USP7 (208-1102) 6*His, Viva Biotech; 6xHis (C); purchased Viva Biotech
# Assay: USP7 Assay A (Ubitquin-Rhodamine 110 Assay)
# Assay type: biochemical
# Settings: USP7_IC50, USP7 activity in USP7 assay A and B (table does not say which assay per compound)
# Summary of the method: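 Enzyme and compound sat together for 30 min before Ub-Rh110 was added, in buffer of 20 mM Tris-HCl (pH 8.0), 1 mM GSH, 0.03% BGG and 0.01% Triton X-100.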
# T1 sequence (Q93009 208-1102): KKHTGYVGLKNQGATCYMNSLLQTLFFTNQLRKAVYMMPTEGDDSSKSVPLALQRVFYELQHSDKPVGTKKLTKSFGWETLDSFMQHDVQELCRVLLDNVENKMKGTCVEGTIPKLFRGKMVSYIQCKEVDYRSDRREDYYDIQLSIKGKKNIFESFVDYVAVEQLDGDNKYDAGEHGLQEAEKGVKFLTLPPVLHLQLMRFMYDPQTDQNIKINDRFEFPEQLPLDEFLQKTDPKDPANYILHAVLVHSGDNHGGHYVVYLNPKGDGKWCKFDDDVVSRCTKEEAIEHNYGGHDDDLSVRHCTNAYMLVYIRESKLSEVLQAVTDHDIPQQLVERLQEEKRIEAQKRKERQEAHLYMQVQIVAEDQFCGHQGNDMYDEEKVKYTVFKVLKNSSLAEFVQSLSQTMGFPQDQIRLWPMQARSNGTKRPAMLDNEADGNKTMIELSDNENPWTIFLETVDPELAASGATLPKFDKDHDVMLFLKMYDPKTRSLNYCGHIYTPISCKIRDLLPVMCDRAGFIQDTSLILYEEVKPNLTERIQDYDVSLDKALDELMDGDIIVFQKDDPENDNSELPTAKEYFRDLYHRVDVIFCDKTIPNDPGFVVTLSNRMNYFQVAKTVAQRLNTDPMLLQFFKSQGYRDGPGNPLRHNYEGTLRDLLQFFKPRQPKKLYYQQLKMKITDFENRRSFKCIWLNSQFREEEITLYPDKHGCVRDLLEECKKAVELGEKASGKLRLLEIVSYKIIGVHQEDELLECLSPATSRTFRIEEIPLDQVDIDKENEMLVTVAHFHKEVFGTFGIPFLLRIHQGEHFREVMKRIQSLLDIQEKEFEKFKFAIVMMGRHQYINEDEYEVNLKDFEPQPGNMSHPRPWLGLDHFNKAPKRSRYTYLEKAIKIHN
row,SMILES,IC50 [µM]
1,CC1(C(=O)N2CCC(O)(Cn3cnc4c(cnn4-c4cccc(N5CC6CC(C5)O6)c4)c3=O)CC2)CC1 [Compound I-1692],< 0.2

# Same assay, conditions: USP7 activity in USP7 assay A and B (table does not say which assay per compound); read-out: USP7_IC50
row,SMILES,IC50 [µM]
1,CC1(C(=O)N2CCC(O)(Cn3cnc4c(cnn4-c4ccc(-c5cnn(C6CC6)c5)cc4)c3=O)CC2)CC1 [Compound I-1723],0.2 to 1
2,NCc1cnn(-c2ccc(C(=O)N3CCC(O)(Cn4cnc5c(cnn5-c5ccc(F)cc5)c4=O)CC3)cc2)c1 [Compound I-613],1 to 10
3,O=C(C[C@H](C(F)F)n1ccc(F)n1)N1CCC(O)(Cn2cnc3c(ccn3-c3ccc(F)cc3)c2=O)CC1 [Compound I-1125],0.2 to 1
4,C[C@@H](CC(=O)N1CCC(O)(Cn2cnc3c(cnn3-c3ccc(F)cc3)c2=O)CC1)n1ccc(F)n1 [Compound I-1029],1 to 10
5,O=C(C1CC1)N1CCC(O)(Cn2cnc3c(cnn3-c3ccc(N4CCC5(CC4)CC(CO)C5)cc3)c2=O)CC1 [Compound I-1741],0.2 to 1
6,O=C(C[C@@H](C(F)F)n1ccc(F)n1)N1CCC(O)(Cn2cnc3c(cnn3-c3ccc(Cl)cc3)c2=O)CC1 [Compound I-1166],< 0.2
7,C[C@H](CC(=O)N1CCC(O)(Cn2cnc3c(cnn3-c3ccc(N4CC[C@](C)(O)C4)cc3)c2=O)CC1)n1cccn1 [Compound I-839],< 0.2
8,CN1CC(Oc2ccc(-n3ncc4c(=O)n(CC5(O)CCN(C(=O)c6ccc(F)cc6)CC5)cnc43)cc2)C1 [Compound I-692],< 0.2
9,O=C(C[C@@H](C(F)F)n1ccc(F)n1)N1CCC(O)(Cn2cnc3c(ccn3-c3ccc(F)cc3)c2=O)CC1 [Compound I-1126],< 0.2
10,CN1CCN(c2cccc(-n3ncc4c(=O)n(CC5(O)CCN(C(=O)C6(C)CC6)CC5)cnc43)c2)CC1C(F)F (centres unmarked) [Compound I-1694],< 0.2
11,O=C(C1CCC(Oc2ccccn2)CC1)N1CCC(O)(Cn2cnc3c(cnn3-c3ccc(CO)cc3)c2=O)CC1 (centres unmarked) [Compound I-853],0.2 to 1
12,CN1CCN(c2cccc(-n3ncc4c(=O)n(CC5(O)CCN(C(=O)C[C@H](C(F)F)n6cccn6)CC5)cnc43)c2)CC1 [Compound I-829],< 0.2
13,O=C(c1cccn1Cc1c(F)cccc1F)N1CCC(O)(Cn2cnc3c(cnn3-c3ccc(F)cc3)c2=O)CC1 [Compound I-559],1 to 10
14,O=C(C1CCC(Oc2ccncc2)CC1)N1CCC(O)(Cn2cnc3c(cnn3-c3ccc(F)cc3)c2=O)CC1 (centres unmarked) [Compound I-752],< 0.2
15,O=C(C1CC1)N1CCC(O)(Cn2cnc3c(cnn3-c3ccc(N4CCC5(CC4)CC(O)C5)cc3)c2=O)CC1 [Compound I-1739],1 to 10
16,Cc1ncn(-c2ccc(-n3ncc4c(=O)n(CC5(O)CCN(C(=O)c6ccc(F)cc6)CC5)cnc43)cc2)n1 [Compound I-673],1 to 10

row,SMILES,IC50 [µM]
1,Cn1cc(-c2ccc(-n3ncc4c(=O)n(CC5(O)CCN(C(=O)c6cnc(C7CC7)o6)CC5)cnc43)cc2)cn1 [Compound I-776],< 0.2
2,C[C@H](CC(=O)N1CCC(O)(Cn2cnc3c(cnn3-c3ccc(N4CC[C@@](C)(O)C4)cc3)c2=O)CC1)n1cccn1 [Compound I-840],1 to 10
3,Cc1cc(Oc2ccc(C(=O)N3CCC(O)(Cn4cnc5c(cnn5-c5ccc(F)cc5)c4=O)CC3)cc2)no1 [Compound I-563],1 to 10
4,O=C(c1ncoc1Cc1ccccc1)N1CCC(O)(Cn2cnc3c(cnn3-c3ccc(F)cc3)c2=O)CC1 [Compound I-557],0.2 to 1
5,CC1(C(=O)N2CCC(O)(Cn3cnc4c(cnn4-c4ccc(N5CCC(F)(F)CC5)cc4)c3=O)CC2)CC1 [Compound I-1728],0.2 to 1
6,CC(=O)N1C[C@@H]2C[C@H]1CN2c1cccc(-n2ncc3c(=O)n(CC4(O)CCN(C(=O)C5(C)CC5)CC4)cnc32)c1 [Compound I-1702],0.2 to 1
7,CC(C)(CO)n1cc(-c2ccc(-n3ncc4c(=O)n(CC5(O)CCN(C(=O)c6ccc(F)cc6)CC5)cnc43)cc2)cn1 [Compound I-1616],0.2 to 1
8,O=C(c1cnc(C2CC2)o1)N1CCC(O)(Cn2cnc3c(cnn3-c3ccc(-n4cccn4)cc3)c2=O)CC1 [Compound I-780],< 0.2
9,"O=C(C1CCC(Nc2cccnc2F)CC1)N1CCC(O)(Cn2cnc3c(cnn3-c3ccccc3)c2=O)CC1 (single isomer, unassigned) [Compounds I-1039]",0.2 to 1
10,O=C(c1ccc(F)cc1)N1CCC(O)(Cn2cnc3c(cnn3-c3ccc(-c4cnn(C5CC5)c4)cc3)c2=O)CC1 [Compound I-1746],0.2 to 1
11,Cn1nccc1O[C@H]1CC[C@H](C(=O)N2CCC(O)(Cn3cnc4c(ccn4-c4ccc(F)cc4)c3=O)CC2)CC1 [Compound I-794],0.2 to 1
12,O=C(C1CCC(Oc2ccccn2)CC1)N1CCC(O)(Cn2cnc3c(cnn3-c3ccc(F)cc3)c2=O)CC1 (centres unmarked) [Compound I-544],1 to 10
13,O=C(C[C@@H](C(F)F)n1cccn1)N1CCC(O)(Cn2cnc3c(cnn3-c3ccc(N4CCCCC4)cc3)c2=O)CC1 [Compound I-822],0.2 to 1
14,O=C(c1nnc(C2CC2)o1)N1CCC(O)(Cn2cnc3c(cnn3-c3ccc(Cl)cc3)c2=O)CC1 [Compound I-1091],1 to 10
15,CC1(C(=O)N2CCC(O)(Cn3cnc4c(cnn4-c4ccc(Cl)cc4)c3=O)CC2)CC1 [Compound I-1632],1 to 10
16,CC1(C(=O)N2CCC(O)(Cn3cnc4c(cnn4-c4ccc(-c5cnn(C6CC6)c5)cc4)c3=O)CC2)CCC1 [Compound I-1720],< 0.2

# Same assay, conditions: USP7 assay A and B (table does not say which assay per compound); read-out: USP7_IC50
row,SMILES,IC50 [µM]
1,Cc1ccc(-n2ncc3c(=O)n(CC4(O)CCN(C(=O)c5ccc(OC6CCNCC6)cc5)CC4)cnc32)cc1 [Compound I-1145],1 to 10
2,C[C@H](CC(=O)N1CCC(O)(Cn2cnc3c(cnn3-c3ccccc3)c2=O)CC1)c1ccccc1 [Compound I-72],< 0.2
3,"C[S+]([O-])c1ccc(-n2ncc3c(=O)n(CC4(O)CCN(C(=O)c5ccc(F)cc5)CC4)cnc32)cc1 (single isomer, unassigned) [Compound I-996, 5-((1-(4-fluorobenzoyl)-4-hydroxypiperidin-4-yl)methyl)-1-(4-(methylsulfinyl)phenyl)-1H-pyrazolo[3,4-d]pyrimidin-4(5H)-one]",1 to 10
4,O=C(c1ccccc1)N1CCC(O)(Cn2cnc3c(ccn3-c3ccc(F)cc3)c2=O)CC1 [Compound I-48],1 to 10
5,O=C(C1CC1)N1CCC(O)(Cn2cnc3c(cnn3-c3ccc(N4CCNCC4)cc3)c2=O)CC1 [Compound I-499],0.2 to 1
6,O=C(C1CC1)N1CCC(O)(Cn2cnc3c(cnn3-c3ccc(NCCN4CCCCC4)cc3)c2=O)CC1 [Compound I-1146],0.2 to 1
7,O=C(C1CC1)N1CCC(O)(Cn2cnc3c(cnn3-c3cccc(NCc4ccccc4)c3)c2=O)CC1 [Compound I-1155],0.2 to 1
8,NC(=O)c1cccc(C(=O)N2CCC(O)(Cn3cnc4c(cnn4-c4ccccc4)c3=O)CC2)c1 [Compound I-172],1 to 10
9,O=C(C1CC1)N1CCC(O)(Cn2cnc3c(cnn3-c3ccc(NS(=O)(=O)c4ccc(Cl)cc4)cc3)c2=O)CC1 [Compound I-1422],1 to 10
10,CN(C)CCOc1cc(-n2ncc3c(=O)n(CC4(O)CCN(C(=O)C5CC5)CC4)cnc32)ccc1-c1ccccc1 [Compound I-856],0.2 to 1
11,O=C(c1cc2n(n1)CCO2)N1CCC(O)(Cn2cnc3c(cnn3-c3ccc(Cl)cc3)c2=O)CC1 [Compound I-1527],1 to 10
12,O=C(c1ccc(-n2ccnn2)cc1)N1CCC(O)(Cn2cnc3c(cnn3-c3ccc(F)cc3)c2=O)CC1 [Compound I-1535],0.2 to 1
13,O=C(C1CC1)N1CCC(O)(Cn2cnc3c(cnn3-c3ccc(-c4ccc(O[C@@H]5CCNC5)cc4)cc3)c2=O)CC1 [Compound I-842],0.2 to 1
14,O=C(C1CC1)N1CCC(O)(Cn2cnc3c(cnn3-c3cccc(Nc4ccc5ncsc5c4)c3)c2=O)CC1 [Compound I-1257],0.2 to 1
15,CN(C)C(=O)Nc1ccc(-n2ncc3c(=O)n(CC4(O)CCN(C(=O)C5CC5)CC4)cnc32)cc1 [Compound I-492],1 to 10
16,CN1CCCC(CNc2cccc(-n3ncc4c(=O)n(CC5(O)CCN(C(=O)C6CC6)CC5)cnc43)c2)C1 (centres unmarked) [Compound I-1197],0.2 to 1
17,C#CC(=O)N1CC[C@H]1C(=O)N1CCC(O)(Cn2cnc3c(cnn3-c3ccc(F)cc3)c2=O)CC1 [Compound I-803],0.2 to 1
18,Cn1cnc(C(=O)N2CCC(O)(Cn3cnc4c(cnn4-c4ccccc4)c3=O)CC2)c1 [Compound I-155],1 to 10
19,CN1CCCCC1COc1ccc(-n2ncc3c(=O)n(CC4(O)CCN(C(=O)c5ccc(F)cc5)CC4)cnc32)cc1 (centres unmarked) [Compound I-1313],0.2 to 1
20,Cc1ccc(-n2ncc3c(=O)n(CC4(O)CCN(C(=O)c5cnc(C6CC6)o5)CC4)cnc32)cc1 [Compound I-1542],0.2 to 1
21,O=C(C1CC1)N1CCC(O)(Cn2cnc3c(cnn3-c3cccc(NCc4cccnc4)c3)c2=O)CC1 [Compound I-1158],1 to 10
22,O=C(C1CC1)N1CCC(O)(Cn2cnc3c(cnn3-c3cccc(-c4cnc(N5CCOCC5)nc4)c3)c2=O)CC1 [Compounds I-401],1 to 10
23,COc1ccc(-n2ncc3c(=O)n(C(C)C4(O)CCN(C(=O)c5ccc(F)cc5)CC4)cnc32)cc1 (centres unmarked) [Compound I-624],0.2 to 1
24,O=C(c1ccc(F)cc1)N1CCC(O)(Cn2cnc3c(cnn3-c3cccc(OCc4ccccc4)c3)c2=O)CC1 [Compound I-1285],1 to 10
25,O=C(c1ccc(F)c(Cl)c1)N1CCC(O)(Cn2cnc3c(cnn3-c3ccccc3)c2=O)CC1 [Compound I-210],1 to 10
26,O=C(Nc1ccc(-n2ncc3c(=O)n(CC4(O)CCN(C(=O)C5CC5)CC4)cnc32)cc1)N1CCCC1 [Compound I-1499],1 to 10
27,CC1(O)CCN(c2cc(-n3ncc4c(=O)n(CC5(O)CCN(C(=O)C6CC6)CC5)cnc43)ccc2F)C1 (centres unmarked) [Compound I-636],0.2 to 1
28,O=C(c1ccc(-n2cccn2)cc1)N1CCC(O)(Cn2cnc3c(cnn3-c3ccc(F)cc3)c2=O)CC1 [Compound I-535],0.2 to 1
29,O=C(c1ccc(OC(F)F)cc1)N1CCC(O)(Cn2cnc3c(cnn3-c3cccc(CO)c3)c2=O)CC1 [Compound I-989],1 to 10
